Laboratory results as given in publication PMC7069796 (Breast cancer research and treatment, 2020).

Molecular target: T1, Estrogen Receptor Alpha (ERα) (Homo sapiens, UniProt P03372, Y537S)
T1 sequence (P03372 282-595 Y537S): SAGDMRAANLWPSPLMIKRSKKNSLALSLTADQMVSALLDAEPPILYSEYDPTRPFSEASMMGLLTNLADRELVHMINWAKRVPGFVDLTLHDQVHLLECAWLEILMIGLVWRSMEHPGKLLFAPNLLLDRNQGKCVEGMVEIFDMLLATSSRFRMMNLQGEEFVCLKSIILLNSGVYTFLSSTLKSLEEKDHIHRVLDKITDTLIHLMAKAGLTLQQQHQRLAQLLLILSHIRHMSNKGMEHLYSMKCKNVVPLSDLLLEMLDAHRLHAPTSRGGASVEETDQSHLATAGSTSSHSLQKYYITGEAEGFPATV
Test: LanthaScreen TR-FRET competitive binding assay with purified GST-ERα LBD

- IC50: 29.5 nM
SMILES: CCC(=C(c1ccc(/C=C/C(=O)O)cc1)c1ccc(B(O)O)cc1)c1ccccc1 [GLL398]
